Test results reported in patent US5061711A, “Method of curing liver diseases by using pyrrolo quinoline quinone triesters and novel pyrrolo quinoline quinone triesters” (Mitsubishi Gas Chemical Company, Inc., priority 1989, dated 1991).
Where two headings read alike, the source gives them in different places.

What was measured:
Solubility = assay type: physicochemical
[1] = bovine, not told, 960 min
Method: Each compound dissolved in 10 mM HEPES buffer (containing 1%DMSO in the case of PQQ triesters) was put in an apparatus for measurement of membrane permeation constant and left to stand for 16 hours at 35 ° C. and then amount of the compound which migrated was measured by ultraviolet absorption (243 nm for PQQ 2Na and 255 nm for PQQ triester) to obtain membrane permeation constant.

mice [2] = assay: Kidney toxicity determined by urine test; assay type: in vivo, mouse; conditions: mouse, in vivo, ip
Method: (2) Kidney toxicity determined by urine test
PQQ.2Na, PQQ trimethyl ester and PQQ triallyl ester were intraperitoneally administered to mice and they were bred in the same manner as in the above acute toxicity test. The doses per kg of body weight of mouse were 20, 40 and 80 mg for PQQ.2Na and 20, 40, 80, 160 and 200 mg for PQQ triesters. Urine was collected every day and glucose concentration was examined using clinical examination reagent (trademark: […] II manufactured by Miles.Sankyo Co.).

liver diseases = conditions: cited from earlier work
kidney = conditions: Watanabe et al 1989; cited from earlier work
male mice SPF-ICR = assay: Acute toxicity test; conditions: mouse, in vivo, ip
Method: To male mice SPF-ICR five weeks old (supplied by Japan Charles River Co.) were intraperitoneally administered PQQ.2Na, PQQ trimethyl ester and PQQ triallyl ester at dosages of 40, 80, 160 and 200 mg per kg of body weight of mouse, respectively and they were bred for 14 days at 25° C. One group consisted of 8 mice. For administration, PQQ.2Na was dissolved in physiological saline and PQQ trimethyl ester and PQQ triallyl ester were suspended in 1%Tween 80-containing physiological saline, respectively.

mice [3] = assay: Kidney toxicity determined by blood examination; assay type: in vivo, mouse; conditions: mouse, in vivo, ip
Method: (3) Kidney toxicity determined by blood examination:
After lapse of one day from the administration, the mice were fasted (only water was given) and then after 18 hours, blood was collected and serum was obtained therefrom. Glucose, urea nitrogen and creatinine in the serum were examined by clinical examination reagent (trademark: FUJI DRYCHEMSLIDE manufactured by Fuji Photo Film Co., Ltd.). The results are shown by average value of eight mice in Table 3.

O=C(OCc1ccccc1)c1cc(C(=O)OCc2ccccc2)c2c(n1)C(=O)C(=O)c1cc(C(=O)OCc3ccccc3)[nH]c1-2 [PQQ tribenzyl ester]
Solubility (Solubility; acetone): Very soluble | Solubility (Solubility; chloroform): Very soluble | Solubility (Solubility; ethanol): Very soluble | Solubility (Solubility; methanol): Very soluble | Solubility (Solubility; water): hardly soluble

CCOC(=O)c1cc(C(=O)OCC)c2c(n1)C(=O)C(=O)c1cc(C(=O)OCC)[nH]c1-2 [PQQ triethyl ester]
Membrane permeation constant [1]: 1.22 ± 0.37 10^-7 cm^2 · sec^-1 | membrane permeation constant relative to that of PQQ.2Na [1]: about 2 times

O=C(O)c1cc(C(=O)O)c2c(n1)C(=O)C(=O)c1cc(C(=O)O)[nH]c1-2 [PQQ, pyrrolo quinoline quinone]
kidney toxicity by urine test (in words) (mice [2]): showed kidney toxicity | inhibition of liver diseases (liver diseases; administered intraperitoneally, Japanese Patent Kokai No. 63-192717): inhibit liver diseases | inhibition of liver diseases (liver diseases; orally administered, Watanabe et al 1988): not observed | kidney toxicity (kidney): has kidney toxicity

O=C(O)c1cc(C(=O)O)c2c(n1)C(=O)C(=O)c1cc(C(=O)O)[nH]c1-2 [PQQ.2Na, reference compound]
mice died (male mice SPF-ICR; 40 mg/kg): No mice died | mice died (male mice SPF-ICR; 80 mg/kg): five mice died | mice died (male mice SPF-ICR; 160 mg/kg): eight mice all died | mice died (male mice SPF-ICR; 200 mg/kg): eight mice all died | glucose in urine (in words) (mice [2]): glucose was detected | glucose in urine (mice [2]; 20 mg/kg): - | glucose in urine (mice [2]; 40 mg/kg): - | glucose in urine (mice [2]; 80 mg/kg): - | creatinine in serum (in words) (mice [3]): much increase | glucose in serum (in words) (mice [3]): Sharp reduction | kidney toxicity (in words) (mice [3]): kidney toxicity was observed | urea nitrogen in serum (in words) (mice [3]): much increase | Creatinine in serum (mice [3]; 20 mg/kg): 0.5 mg/dL | Glucose in serum (mice [3]; 20 mg/kg): 70 mg/dL | Urea nitrogen in serum (mice [3]; 20 mg/kg): 21 mg/dL | Creatinine in serum (mice [3]; 40 mg/kg): 2.3 mg/dL | Glucose in serum (mice [3]; 40 mg/kg): 60 mg/dL | Urea nitrogen in serum (mice [3]; 40 mg/kg): 110 mg/dL | Creatinine in serum (mice [3]; 80 mg/kg): 3.4 mg/dL | Glucose in serum (mice [3]; 80 mg/kg): 57 mg/dL | Urea nitrogen in serum (mice [3]; 80 mg/kg): 130 mg/dL | Creatinine in serum (mice [3]; 160 mg/kg): 4.2 mg/dL | Glucose in serum (mice [3]; 160 mg/kg): 35 mg/dL | Urea nitrogen in serum (mice [3]; 160 mg/kg): 139 mg/dL | Membrane permeation constant [1]: 0.68 ± 0.36 10^-7 cm^2 · sec^-1
